Key:
[1] = biological target: T1, CD3ε expressed on Jurkat cells (Homo sapiens, UniProt P07766); test: Binding assay of peptide tetramers on Jurkat cells by flow cytometry; conditions: for Kd: peptide tetramer on Alexa Fluor 488 streptavidin, CD3ε-expressing Jurkat cells, read-out: affinity (Kd); for binding of peptide tetramers to Jurkat cells: varying tetramer concentrations, 30 minutes on ice
T1 construct: against CD3ε expressed on Jurkat cells; host or cells: Jurkat T cells (E6-1)
Description: The results were analyzed using FlowJo software.

[2] = test system: 2PK3 mouse B lymphoma cells; conditions: varying tetramer concentrations; cells lack TCR-CD3
[3] = biological target: T2, human recombinant CD3ε protein (Homo sapiens, UniProt P07766); test: Biopanning of Ph.D.-7 phage display peptide library, sequencing of plaques; conditions: after the 5th round of biopanning, 18 out of 20 plaques; phage clone displaying the sequence
T2 construct: purchased Sino Biological
Description: 1.2 Biopanning: Screening of the Ph.D.-7 phage display peptide library on human recombinant CD3ε protein as the target protein was carried out according to the manufacturer's protocol with modifications. Briefly, 50 μl of a 50% aqueous suspension of Pierce protein A/G magnetic beads was washed with 1 ml of TBST washing buffer (tris-buffered saline with 0.1% tween) on a magnetic separator and blocked in blocking buffer (0.1 M NaHCO3 (pH 8.6) with 0.5% (w/v) BSA) for 1 h at 4° C. on a rotator. Two picomoles of target protein was mixed with 10^11 pfu (plaque-forming unit) of the phage library in 200 μl of TBST buffer and incubated for 15 minutes at room temperature on a rotator and then incubated with pre-washed and pre-blocked magnetic beads for 15 minutes at room temperature on a rotator. After the microbeads were washed vigorously for 15 times with 1 ml TBST, the bound phage was eluted by 1 ml of glycine buffer (0.2 M Glycine-HCl (pH 2.2)+0.1% (w/v) BSA) and neutralized by addition of 150 μl of 1 M Tris-HCl (pH 9.1). […]
1.3 DNA Sequencing of Phage Clones: After the third and fifth round of biopanning, the ssDNA of selected phage clones was harvested following the standard protocol (NEB). […] The purified DNA of each clone was sequenced by Sanger sequencing (UAB Genomics Core Laboratories) using the −96 gIII primer and analyzed using Geneious Prime 2019 software suite.

T1 sequence (P07766 23-207): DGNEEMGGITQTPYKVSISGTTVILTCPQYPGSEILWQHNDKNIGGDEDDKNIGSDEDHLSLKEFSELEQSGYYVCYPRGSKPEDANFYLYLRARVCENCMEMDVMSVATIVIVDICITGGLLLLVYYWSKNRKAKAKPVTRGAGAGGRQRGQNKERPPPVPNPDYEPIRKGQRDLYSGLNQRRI
T1 sequence (P09693 23-182 partner): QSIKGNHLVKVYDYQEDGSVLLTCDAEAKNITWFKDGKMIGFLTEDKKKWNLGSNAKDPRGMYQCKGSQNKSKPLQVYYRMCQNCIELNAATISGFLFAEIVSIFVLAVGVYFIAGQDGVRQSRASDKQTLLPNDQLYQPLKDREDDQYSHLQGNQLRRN
T1 sequence (P04234 22-171 partner): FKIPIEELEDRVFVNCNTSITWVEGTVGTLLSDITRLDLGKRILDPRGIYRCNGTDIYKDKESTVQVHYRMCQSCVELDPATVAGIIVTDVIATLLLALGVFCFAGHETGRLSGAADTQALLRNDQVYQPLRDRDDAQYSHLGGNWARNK
T1 sequence (P20963 22-164 partner): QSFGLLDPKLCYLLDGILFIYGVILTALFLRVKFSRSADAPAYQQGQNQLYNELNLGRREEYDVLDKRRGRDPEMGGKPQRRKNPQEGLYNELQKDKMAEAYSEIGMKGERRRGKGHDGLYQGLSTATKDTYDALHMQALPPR
T1 sequence (P01848 whole entry partner): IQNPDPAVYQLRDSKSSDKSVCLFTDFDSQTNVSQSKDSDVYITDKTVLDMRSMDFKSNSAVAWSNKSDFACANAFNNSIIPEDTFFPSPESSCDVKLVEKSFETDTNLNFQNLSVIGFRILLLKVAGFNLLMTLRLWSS
T1 sequence (P01850 whole entry partner): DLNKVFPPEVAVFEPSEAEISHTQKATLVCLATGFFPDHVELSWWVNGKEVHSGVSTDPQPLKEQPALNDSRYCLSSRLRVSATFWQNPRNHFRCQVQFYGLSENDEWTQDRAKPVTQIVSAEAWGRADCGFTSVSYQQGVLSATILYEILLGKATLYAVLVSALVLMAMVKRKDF
T2 sequence (P07766 23-207): as the sequence (P07766 23-207) above

Substance	Kd [1] [µM]	binding of peptide tetramers to Jurkat cells [1]	binding of peptide tetramers to 2PK3 cells [2]	share of tested plaques occupied by the clone [3] [%]
FWSSPQMGGGS [SEQ ID NO: 30]-PEG6-K-biotin [anti-CD3ε peptide 11 tetramer]	~100	incremental binding to the Jurkat cells in a dose-dependent manner	no specific attachment	–
WSLGYTG [anti-CD3ε peptide 13]	–	–	–	90
WSLGYTGGGGS [SEQ ID NO: 31]-PEG6-K-biotin [anti-CD3ε peptide 13 tetramer]	~100	incremental binding to the Jurkat cells in a dose-dependent manner	no specific attachment	–

Reference: US12006373B1, “Identification and evaluation of novel peptide ligands specific to human CD3 epsilon” (Board of Trustees of the University of Alabama, for and on …, priority 2020, dated 2024)
